Common to all, as to format: biochemical
The target of one assay is T1, cathepsin K (Homo sapiens, UniProt P43235).
T1 sequence (P43235 115-329): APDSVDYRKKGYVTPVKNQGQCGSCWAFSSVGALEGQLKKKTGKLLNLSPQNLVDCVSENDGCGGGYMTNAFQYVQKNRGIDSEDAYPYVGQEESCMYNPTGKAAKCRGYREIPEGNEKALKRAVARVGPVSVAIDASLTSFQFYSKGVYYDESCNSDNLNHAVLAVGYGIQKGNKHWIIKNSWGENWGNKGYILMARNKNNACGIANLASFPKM
The assay can be described thus: Inhibitory activity assay against cathepsin K (enzyme assay). To be noted: Z-Phe-Arg-AMC 10 μM, enzyme 1 nM, pH 5.5, 30 minutes. Summed up:
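IC50 by 4-parameter logistic fit of fluorescence (ex 355 nm, em 460 nm) after 30 min reaction. Compound tested at 10 final concentrations from 10.0 μM down to 0.000508 μM against 1 nM enzyme and 10 μM Z-Phe-Arg-AMC, in MES buffer pH 5.5 with DTT, EDTA, Triton X-100 and 10% DMSO.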

The target in a further assay is cathepsin L (Homo sapiens, UniProt P07711). Briefly: Inhibitory activity assay against cathepsin L (enzyme assay). To be noted: Z-Phe-Arg-AMC 2 μM, enzyme 3 nM, pH 5.5, 30 minutes. The method in brief: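 IC50s came from 4-parameter logistic fits of ten concentrations (10.0 μM down to 0.000508 μM). Reaction: 30 min, 3 nM enzyme, 2 μM Z-Phe-Arg-AMC, pH 5.5 MES buffer containing DTT, EDTA, Polysorbate 20 and 10% DMSO; fluorescence read 340/460 nm.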

The target in a further assay is cathepsin B (Homo sapiens, UniProt P07858). Briefly: Inhibitory activity assay against cathepsin B (enzyme assay). To be noted: Z-Arg-Arg-AMC 40 μM, enzyme 1 nM, pH 6.0, 90 minutes. The method in brief:
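Reaction run 90 min in MES buffer pH 6.0 containing DTT, EDTA, Polysorbate 20 and 10% DMSO, using 40 μM fluorogenic Z-Arg-Arg-AMC and 1 nM cathepsin B. Ten compound levels from 10.0 μM; AMC fluorescence at ex 340/em 460 nm fitted to a 4-parameter logistic for IC50.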

The target of the next assay is cathepsin S (Homo sapiens, UniProt P25774). The assay can be described thus: Inhibitory activity assay against cathepsin S (enzyme assay). The conditions noted are these: Z-Phe-Arg-AMC 70 μM, enzyme 3 nM, pH 6.5, 45 minutes. The method in brief: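 Ten-point compound titration (10.0 to 0.000508 μM final) reacted 45 min with 3 nM cathepsin S and 70 μM Z-Phe-Arg-AMC in MES 50 mM pH 6.5, DTT 2.5 mM, EDTA 1.0 mM, BSA 0.001%, DMSO 10%. AMC release read at 340/460 nm; IC50 from four-parameter logistic fit.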

SMILES strings stand for the structures.

cathepsin L, sequence (P07711 114-333, species assumed): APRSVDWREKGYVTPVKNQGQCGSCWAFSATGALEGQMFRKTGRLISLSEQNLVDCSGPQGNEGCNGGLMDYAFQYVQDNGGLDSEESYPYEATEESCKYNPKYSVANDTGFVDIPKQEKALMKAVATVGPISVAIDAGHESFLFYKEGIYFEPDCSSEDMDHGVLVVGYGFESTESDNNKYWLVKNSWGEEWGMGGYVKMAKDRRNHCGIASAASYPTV
cathepsin S, sequence (P25774 115-331, species assumed): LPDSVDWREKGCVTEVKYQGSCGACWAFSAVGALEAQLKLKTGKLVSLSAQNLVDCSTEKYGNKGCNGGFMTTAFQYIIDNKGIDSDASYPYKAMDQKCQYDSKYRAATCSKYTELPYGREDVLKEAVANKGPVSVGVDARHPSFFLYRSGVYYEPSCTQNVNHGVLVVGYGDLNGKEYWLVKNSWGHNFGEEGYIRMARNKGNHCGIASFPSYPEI

`N#Cc1nccc(C2(NC(=O)Nc3ccc(F)c(C(F)(F)F)c3)CCCCC2)n1` [Example 96, 1-(1-(2-cyanopyrimidin-4-yl)cyclohexyl)-3-(4-fluoro-3-(trifluoromethyl)phenyl)urea]: the IC50 (as a rule, the concentration at which inhibition is half-maximal) was 10.2 nM on cathepsin K, 6500 nM against cathepsin L, over 10000 nM on cathepsin B and over 10000 nM on cathepsin S.

For the compound `N#Cc1nccc(C2(NC(=O)Nc3cc(C(F)(F)F)ccc3F)CCCCC2)n1` [Example 97, 1-(1-(2-cyanopyrimidin-4-yl)cyclohexyl)-3-(2-fluoro-5-(trifluoromethyl)phenyl)urea], the IC50 is 4.9 nM on cathepsin K, over 10000 nM at cathepsin L, over 10000 nM at cathepsin B and over 10000 nM against cathepsin S.

As for `N#Cc1nccc(C2(NC(=O)Nc3cc(C(F)(F)F)ccc3C(=O)O)CCCCC2)n1` [Example 98, 2-(3-(1-(2-cyanopyrimidin-4-yl)cyclohexyl)ureido)-4-(trifluoromethyl)benzoic acid], the IC50 on cathepsin K is 61.7 nM; against cathepsin L, over 10000 nM; against cathepsin B, over 10000 nM; against cathepsin S it was 4480 nM.

`Cc1ccc(C(F)(F)F)cc1NC(=O)NC1(c2ccnc(C#N)n2)CCCCC1` [Example 99, 1-(1-(2-cyanopyrimidin-4-yl)cyclohexyl)-3-(2-methyl-5-(trifluoromethyl)phenyl)urea]: the IC50 on cathepsin K was 3.2 nM; at cathepsin L, 1100 nM; on cathepsin B it was over 10000 nM; against cathepsin S it was over 10000 nM.

Turning to `N#Cc1nccc(C2(NC(=O)Nc3ccc(Cc4ccccc4)cc3)CCCCC2)n1` [Example 100, 1-(4-benzylphenyl)-3-(1-(2-cyanopyrimidin-4-yl)cyclohexyl)urea], the IC50 on cathepsin K was 15.4 nM; at cathepsin L it was over 10000 nM; against cathepsin B, over 10000 nM; at cathepsin S it was over 10000 nM.

Regarding `N#Cc1nccc(C2(NC(=O)Nc3ccc(Nc4ccccc4)cc3)CCCCC2)n1` [Example 101, 1-(1-(2-cyanopyrimidin-4-yl)cyclohexyl)-3-(4-(phenylamino)phenyl)urea], the half-inhibitory concentration (IC50) at cathepsin K is 21.7 nM; on cathepsin L, over 10000 nM; against cathepsin B, over 10000 nM; against cathepsin S, over 10000 nM.

In the case of `N#Cc1nccc(C2(NC(=O)Nc3ccccc3O)CCCCC2)n1` [Example 102, 1-(1-(2-cyanopyrimidin-4-yl)cyclohexyl)-3-(2-hydroxyphenyl)urea], the IC50 on cathepsin K is 63.2 nM; on cathepsin L it was 3440 nM; against cathepsin B it was over 10000 nM; on cathepsin S, 6240 nM.

With `N#Cc1nccc(C2(NC(=O)Nc3cc(C(F)(F)F)ccc3C(F)(F)F)CCCCC2)n1` [Example 103, 1-(2,5-bis(trifluoromethyl)phenyl)-3-(1-(2-cyanopyrimidin-4-yl)cyclohexyl)urea], the IC50 on cathepsin K was 4.6 nM; on cathepsin L it was over 10000 nM; against cathepsin B, over 10000 nM; against cathepsin S it was over 10000 nM.

For `CN(C(=O)NC1(c2ccnc(C#N)n2)CCCCC1)c1ccccc1` [Example 104, 3-(1-(2-cyanopyrimidin-4-yl)cyclohexyl)-1-methyl-1-phenylurea], the IC50 on cathepsin K is 12.4 nM; against cathepsin L, 5590 nM; on cathepsin B it was over 10000 nM; against cathepsin S, 3540 nM.

Regarding `CN(C(=O)NC1(c2ccnc(C#N)n2)CCCCC1)c1ccc(F)c(C(F)(F)F)c1` [Example 105, 3-(1-(2-cyanopyrimidin-4-yl)cyclohexyl)-1-(4-fluoro-3-(trifluoromethyl)phenyl)-1-methylurea], the IC50 is 2.1 nM at cathepsin K, 2980 nM on cathepsin L, over 10000 nM against cathepsin B and 3630 nM against cathepsin S.

Consider `N#Cc1nccc(C2(NC(=O)Nc3cc(C(F)(F)F)c(F)cc3F)CCCCC2)n1` [Example 106, 1-(1-(2-cyanopyrimidin-4-yl)cyclohexyl)-3-(2,4-difluoro-5-(trifluoromethyl)phenyl)urea], for which the IC50 at cathepsin K is 3.1 nM; on cathepsin L, over 10000 nM; at cathepsin B, over 10000 nM; against cathepsin S, over 10000 nM.

As for `COCc1ccc(C(F)(F)F)cc1NC(=O)NC1(c2ccnc(C#N)n2)CCCCC1` [Example 107, 1-(1-(2-cyanopyrimidin-4-yl)cyclohexyl)-3-(2-(methoxymethyl)-5-(trifluoromethyl)phenyl)urea], the IC50 on cathepsin K is 6.8 nM; at cathepsin L, 1470 nM; on cathepsin B, over 10000 nM; against cathepsin S, 4750 nM.

Take `N#Cc1nccc(C2(NC(=O)Nc3cc(C(F)(F)F)ccc3CO)CCCCC2)n1` [Example 108, 1-(1-(2-cyanopyrimidin-4-yl)cyclohexyl)-3-(2-(hydroxymethyl)-5-(trifluoromethyl)phenyl)urea]: the IC50 at cathepsin K is 6.9 nM; against cathepsin L, 2270 nM; at cathepsin B it was over 10000 nM; against cathepsin S, 9850 nM.

Take `N#Cc1nccc(C2(NC(=O)Nc3cccc(Br)c3)CCCCC2)n1` [Example 109, 1-(3-bromophenyl)-3-(1-(2-cyanopyrimidin-4-yl)cyclohexyl)urea]: the IC50 is 11 nM at cathepsin K, 1920 nM against cathepsin L, over 10000 nM against cathepsin B and 7620 nM at cathepsin S.

For `N#Cc1nccc(C2(NC(=O)Nc3ccc(Br)cc3)CCCCC2)n1` [Example 110, 1-(4-bromophenyl)-3-(1-(2-cyanopyrimidin-4-yl)cyclohexyl)urea], the IC50 on cathepsin K is 22.9 nM; on cathepsin L, over 10000 nM; on cathepsin B it was over 10000 nM; on cathepsin S, over 10000 nM.

Regarding `N#Cc1nccc(C2(NC(=O)Nc3cccc(-c4ccccc4)c3)CCCCC2)n1` [Example 111, 1-([1,1′-biphenyl]-3-yl)-3-(1-(2-cyanopyrimidin-4-yl)cyclohexyl)urea], the IC50 at cathepsin K is 71.5 nM; on cathepsin L, over 10000 nM; at cathepsin B, over 10000 nM; against cathepsin S it was over 10000 nM.

As for `N#Cc1nccc(C2(NC(=O)Nc3ccc(-c4ccccc4)cc3)CCCCC2)n1` [Example 113, 1-([1,1′-biphenyl]-4-yl)-3-(1-(2-cyanopyrimidin-4-yl)cyclohexyl)urea], the IC50 on cathepsin K was 12.2 nM; against cathepsin L, over 10000 nM; at cathepsin B it was over 10000 nM; on cathepsin S it was over 10000 nM.

Take `N#Cc1nccc(C2(NC(=O)Nc3ccc(-c4ccc(C(F)(F)F)cc4)cc3)CCCCC2)n1` [Example 114, 1-(1-(2-cyanopyrimidin-4-yl)cyclohexyl)-3-(4′-(trifluoromethyl)-[1,1′-biphenyl]-4-yl)urea]: the IC50 is 69.7 nM on cathepsin K, over 10000 nM against cathepsin L, over 10000 nM against cathepsin B and over 10000 nM on cathepsin S.

Take `N#Cc1nccc(C2(NC(=O)Nc3ccc(-c4ccc(O)cc4)cc3)CCCCC2)n1` [Example 115, 1-(1-(2-cyanopyrimidin-4-yl)cyclohexyl)-3-(4′-hydroxy-[1,1′-biphenyl]-4-yl)urea]: the IC50 was 9.2 nM at cathepsin K, over 10000 nM against cathepsin L, over 10000 nM at cathepsin B and over 10000 nM on cathepsin S.

As for `CS(=O)(=O)c1ccc(-c2ccc(NC(=O)NC3(c4ccnc(C#N)n4)CCCCC3)cc2)cc1` [Example 116, 1-(1-(2-cyanopyrimidin-4-yl)cyclohexyl)-3-(4′-(methylsulfonyl)-[1,1′-biphenyl]-4-yl)urea], the IC50 is 2.1 nM at cathepsin K, over 10000 nM on cathepsin L, over 10000 nM against cathepsin B and over 10000 nM against cathepsin S.

For `N#Cc1nccc(C2(NC(=O)Nc3ccc(-c4ccc(N5CCOCC5)cc4)cc3)CCCCC2)n1` [Example 117, 1-(1-(2-cyanopyrimidin-4-yl)cyclohexyl)-3-(4′-morpholino-[1,1′-biphenyl]-4-yl)urea], the concentration for half-maximal inhibition (IC50) at cathepsin K is 4.1 nM; against cathepsin L, over 10000 nM; on cathepsin B it was over 10000 nM; at cathepsin S, over 10000 nM.

For `Cn1ncc2ccc(-c3ccc(NC(=O)NC4(c5ccnc(C#N)n5)CCCCC4)cc3)cc21` [Example 118, 1-(1-(2-cyanopyrimidin-4-yl)cyclohexyl)-3-(4-(1-methyl-1H-indazol-6-yl)phenyl)urea], the IC50 on cathepsin K was 16.6 nM; at cathepsin L it was over 10000 nM; at cathepsin B, over 10000 nM; on cathepsin S it was over 10000 nM.

For the origin of these results see US11299478B2, “2-cyanopyrimidin-4-yl carbamate or urea derivative or salt thereof, and pharmaceutical composition including same” (HANLIM PHARMACEUTICAL CO., LTD., priority 2018, dated 2022).
